59 molecules from ChEMBL document CHEMBL3217730, “Determination of structural requirements of influenza neuraminidase type A inhibitors and binding interaction analysis with the active site of A/H1N1 by 3D-QSAR CoMFA and CoMSIA modeling” (Medchemcomm, 2011) can be followed below.

A word on the pIC50: it is the negative decadic logarithm of the IC50, by convention in mol/L. A low value points to a high IC50.

The target in this assay is Neuraminidase (Influenza A virus, UniProt B4URF0). Put plainly: Inhibition of Influenza virus neuraminidase A. On the set-up: species or system unidentified influenza virus.
Neuraminidase, sequence (B4URF0 whole entry): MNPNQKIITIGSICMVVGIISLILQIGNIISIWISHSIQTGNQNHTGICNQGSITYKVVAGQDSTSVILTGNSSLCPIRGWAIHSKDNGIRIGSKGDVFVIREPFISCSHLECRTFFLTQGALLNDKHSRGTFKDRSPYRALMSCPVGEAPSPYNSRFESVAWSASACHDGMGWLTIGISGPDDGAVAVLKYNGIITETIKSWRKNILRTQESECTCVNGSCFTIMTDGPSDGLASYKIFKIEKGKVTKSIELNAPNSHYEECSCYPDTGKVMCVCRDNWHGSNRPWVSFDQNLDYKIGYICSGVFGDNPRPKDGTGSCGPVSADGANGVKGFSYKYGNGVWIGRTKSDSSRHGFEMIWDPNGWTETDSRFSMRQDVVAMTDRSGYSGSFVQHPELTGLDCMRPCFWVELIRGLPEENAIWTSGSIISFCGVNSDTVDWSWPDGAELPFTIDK

As to `CC[C@@H](C)O[C@@H]1C=C(C(=O)O)C[C@H](NC(=N)N)[C@H]1NC(C)=O`, the IC50 is 0.5 µM (read-out: IC50) and 0.0005 µM (read-out: pIC50 (converted)).

For `CC(=O)N[C@@H]1[C@@H](N)CC(C(=O)O)=C[C@H]1Oc1ccccc1`, the IC50 by setting is: (read-out: IC50) 530 µM; (read-out: pIC50 (converted)) 0.531 µM.

For the molecule `CCC(C)O[C@@H]1C=C(C(=O)O)C[C@H](N)[C@H]1NC(C)=O` (stereo partly drawn), the IC50 (read-out: IC50) amounted to 10 µM.

For the molecule `CCO[C@@H]1C=C(C(=O)O)C[C@H](N)[C@H]1NC(C)=O`, the IC50 was 2000 µM (read-out: IC50) and 2 µM (read-out: pIC50 (converted)).

For the molecule `CCCCCCC[C@H](CC)O[C@@H]1C=C(C(=O)O)C[C@H](N)[C@H]1NC(C)=O`, the IC50 is 1 µM (read-out: IC50) and 0.001 µM (read-out: pIC50 (converted)).

`CCCO[C@@H]1C=C(C(=O)O)C[C@H](N=C(N)N)[C@H]1NC(C)=O`: the IC50 was 2 µM (read-out: IC50) and 0.002 µM (read-out: pIC50 (converted)).

Take `CCCCCCCCCCO[C@@H]1C=C(C(=O)O)C[C@H](N)[C@H]1NC(C)=O`: the IC50 runs as follows: (read-out: IC50) 600 µM; (read-out: pIC50 (converted)) 0.601 µM.

As to `C=CC[C@H](CC)O[C@@H]1C=C(C(=O)O)C[C@H](N)[C@H]1NC(C)=O`, the IC50 (read-out: IC50) is 1 µM and the IC50 (read-out: pIC50 (converted)) was 0.001 µM.

On to `CO[C@@H]1C=C(C(=O)O)C[C@H](N)[C@H]1NC(C)=O`, for which the IC50 is, setting by setting: (read-out: IC50) 3700 µM; (read-out: pIC50 (converted)) 3.71 µM.

Take `CC(=O)N[C@H]1[C@H](O)C=C(C(=O)O)C[C@@H]1N=C(N)N`: the IC50 reads like this: (read-out: IC50) 100 µM; (read-out: pIC50 (converted)) 0.1 µM.

As for `CC[C@@H](CCC1CCCCC1)O[C@@H]1C=C(C(=O)O)C[C@H](N)[C@H]1NC(C)=O`, the IC50 (read-out: IC50) is 1 µM and the IC50 (read-out: pIC50 (converted)) is 0.001 µM.

For `CCC(CC)C(=O)N1C[C@@H](N)[C@@H](C(=O)O)C1`, under “read-out: IC50”, the IC50 is 22 µM.

On to `CCN(CC)C(=O)N1C[C@@H](N)[C@@H](C(=O)O)C1`, for which the IC50 (read-out: IC50) was 25 µM.

As to `CCCN(CCC)C(=O)N1C[C@@H](N)[C@@H](C(=O)O)C1`, for the setting “read-out: IC50”, the IC50 was 32 µM.

With `CCN(C(=O)N1C[C@@H](N)[C@@H](C(=O)O)C1)C(C)C`, the IC50 (read-out: IC50) stood at 1.6 µM and the IC50 (read-out: pIC50 (converted)) was 1.06 µM.

Regarding `CC(C)N(C(=O)N1C[C@@H](N)[C@@H](C(=O)O)C1)C(C)C`, the IC50 (read-out: IC50) worked out at 4 µM.

Regarding `CC(C)N(CCO)C(=O)N1C[C@@H](N)[C@@H](C(=O)O)C1`, the IC50 (read-out: IC50) was found to be 21 µM.

With `CC(C)N(CCCC(=O)O)C(=O)N1C[C@@H](N)[C@@H](C(=O)O)C1`, the IC50 (read-out: IC50) amounted to 19 µM.

For the molecule `CC(C)N(CCN)C(=O)N1C[C@@H](N)[C@@H](C(=O)O)C1`, the IC50 (read-out: IC50) was found to be 46 µM.

`CCN(C(=O)N1C[C@H](C(=O)O)[C@H](NC(=N)N)C1)C(C)C`: the IC50 (read-out: IC50) worked out at 13 µM.

With `CCN(C(=O)N1C[C@H](N)[C@H](C(=O)O)[C@@H]1CNC(C)=O)C(C)C`, the IC50 (read-out: IC50) is 7.5 µM.

`CCC(=O)NC[C@H]1[C@@H](C(=O)O)[C@@H](N)CN1C(=O)N(CC)C(C)C`: the IC50 (read-out: IC50) was determined as 16 µM.

For the molecule `C=CC(=O)NC[C@H]1[C@@H](C(=O)O)[C@@H](N)CN1C(=O)N(CC)C(C)C`, the IC50 (read-out: IC50) came to 96 µM.

On to `CCN(C(=O)N1C[C@H](N)[C@H](C(=O)O)[C@@H]1CNC(=O)C(F)(F)F)C(C)C`, for which the IC50 (read-out: IC50) came to 0.28 µM.

Consider `CCN(C(=O)N1C[C@H](N)[C@H](C(=O)O)[C@@H]1CNS(C)(=O)=O)C(C)C`, for which, for the setting “read-out: IC50”, the IC50 is 130 µM.

In the case of `CCC(CC)NC(=O)[C@@H](NC(C)=O)[C@H]1CC(C(=O)O)C[C@@H]1NC(=N)N` (stereo partly drawn), the IC50 (read-out: IC50) was 0.06 µM.

`CCC(CC)NC(=O)[C@H](NC(C)=O)[C@H]1CC(C(=O)O)C[C@@H]1NC(=N)N` (stereo partly drawn): the IC50 (read-out: IC50) was found to be 25 µM.

`CCN(CC)C(=O)[C@@H](NC(C)=O)[C@H]1CC(C(=O)O)C[C@@H]1NC(=N)N` (stereo partly drawn): the IC50 (read-out: IC50) is 0.07 µM and the IC50 (read-out: pIC50 (converted)) is 0.00701 µM.

Take `CCCN(CCC)C(=O)[C@@H](NC(C)=O)[C@H]1CC(C(=O)O)C[C@@H]1NC(=N)N` (stereo partly drawn): the IC50 (read-out: IC50) was 0.043 µM.

As for `CC[C@H](C)O[C@@H]1C=C(C(=O)O)C[C@H](N)[C@H]1NC(C)=O`, the IC50 is 9 µM (read-out: IC50) and 0.00902 µM (read-out: pIC50 (converted)).

For the molecule `CC[C@H](C)O[C@@H]1C=C(C(=O)O)C[C@H](NC(=N)N)[C@H]1NC(C)=O`, the IC50 was 0.5 µM (read-out: IC50) and 0.0005 µM (read-out: pIC50 (converted)).

Turning to `CC(=O)N[C@@H]1[C@@H](N)CC(C(=O)O)=C[C@H]1OC(C)C`, the IC50 (read-out: IC50) is 0.001 µM.

Regarding `CC(=O)N[C@H]1[C@H](OC(C)C)C(C)=C(C(=O)O)C[C@@H]1N`, where the note is “read-out: IC50”, the IC50 was 2.3 µM.

Turning to `CC(=O)N[C@H]1[C@H](OC(C)C)C(F)=C(C(=O)O)C[C@@H]1N`, the IC50 (read-out: IC50) was found to be 0.003 µM.

For `CC(=O)N[C@@H]1[C@@H](N)[C@H](C)C(C(=O)O)=C[C@H]1OC(C)C`, where the note is “read-out: IC50”, the IC50 was determined as 1.5 µM.

For the molecule `CCCC[C@@H](NC(C)=O)[C@@H]1CC(C(=O)O)C[C@@H]1NC(=N)N` (stereo partly drawn), the IC50 (read-out: IC50) was determined as 0.013 µM.

For the molecule `CCCC[C@@H](NC(C)=O)[C@@H]1CC(C(=O)O)C[C@H]1NC(=N)N` (stereo partly drawn), the IC50 (read-out: IC50) is 14.6 µM.

With `CCCN(CCC)C(=O)[C@@H](NC(C)=O)[C@H]1C[C@](O)(C(=O)O)C[C@@H]1NC(=N)N`, under “read-out: IC50”, the IC50 was found to be 4.9 µM.

As for `CCCN(CCC)C(=O)[C@@H](NC(C)=O)[C@H]1C[C@@](O)(C(=O)O)C[C@@H]1NC(=N)N`, the IC50 (read-out: IC50) stood at 2300 µM.

As to `CCCCCCCCCO[C@@H]1C=C(C(=O)O)C[C@H](N)[C@H]1NC(C)=O`, the IC50 is 210 µM (read-out: IC50) and 0.21 µM (read-out: pIC50 (converted)).

Consider `CC[C@@H](CC1CCCCC1)O[C@@H]1C=C(C(=O)O)C[C@H](N)[C@H]1NC(C)=O`, for which the IC50 by setting is: (read-out: IC50) 16 µM; (read-out: pIC50 (converted)) 0.016 µM.

With `CC(C)N(CCCCC(=O)O)C(=O)N1C[C@@H](N)[C@@H](C(=O)O)C1`, where the note is “read-out: IC50”, the IC50 turned out to be 1.3 µM.

Turning to `CC(C)N(CCc1ccccn1)C(=O)N1C[C@@H](N)[C@@H](C(=O)O)C1`, under “read-out: IC50”, the IC50 is 1.3 µM.

As for `CC[C@@H](Cc1ccccc1)O[C@@H]1C=C(C(=O)O)C[C@H](N)[C@H]1NC(C)=O`, the IC50 (read-out: IC50) was found to be 620 µM and the IC50 (read-out: pIC50 (converted)) was 0.621 µM.

The molecule `CC(C)N(CCCO)C(=O)N1C[C@@H](N)[C@@H](C(=O)O)C1` registered a pIC50 of 5.677.

As to `CC(C)N(CCCCCO)C(=O)N1C[C@@H](N)[C@@H](C(=O)O)C1`, the IC50 (read-out: IC50) turned out to be 2 µM.

With `CC(=O)N[C@@H]1[C@@H](N)CC(C(=O)O)=C[C@H]1OC1CCCCC1`, the IC50 runs as follows: (read-out: IC50) 60 µM; (read-out: pIC50 (converted)) 0.0601 µM.

In the case of `CCCO[C@@H]1C=C(C(=O)O)C[C@H](N)[C@H]1NC(C)=O`, the IC50 reads like this: (read-out: IC50) 180 µM; (read-out: pIC50 (converted)) 0.18 µM.

Regarding `CC[C@H](CCc1ccccc1)O[C@@H]1C=C(C(=O)O)C[C@H](N)[C@H]1NC(C)=O`, the IC50 was 12 µM (read-out: IC50) and 0.012 µM (read-out: pIC50 (converted)).

`CC(=O)N[C@@H]1[C@@H](N)CC(C(=O)O)=C[C@H]1OCC(C)C`: the IC50 was 200 µM (read-out: IC50) and 0.2 µM (read-out: pIC50 (converted)).

`CCCCO[C@@H]1C=C(C(=O)O)C[C@H](N)[C@H]1NC(C)=O`: the IC50 (read-out: IC50) was found to be 300 µM and the IC50 (read-out: pIC50 (converted)) was 0.301 µM.

For the molecule `CC(=O)N[C@@H]1[C@@H](N)CC(C(=O)O)=C[C@H]1OCCCc1ccc(-c2ccccc2)cc1`, the IC50 (read-out: IC50) worked out at 90 µM and the IC50 (read-out: pIC50 (converted)) was 0.0902 µM.

On to `CC(=O)N[C@H]1[C@H](O)C=C(C(=O)O)C[C@@H]1N`, for which the IC50 (read-out: IC50) was 6300 µM.

Turning to `CC[C@@H](CCc1ccccc1)O[C@@H]1C=C(C(=O)O)C[C@H](N)[C@H]1NC(C)=O`, the IC50 was 0.3 µM (read-out: IC50) and 0.000301 µM (read-out: pIC50 (converted)).

On to `CCCCCCCCO[C@@H]1C=C(C(=O)O)C[C@H](N)[C@H]1NC(C)=O`, for which the IC50 (read-out: IC50) stood at 180 µM and the IC50 (read-out: pIC50 (converted)) was 0.18 µM.

As for `CCCCO[C@@H]1C=C(C(=O)O)C[C@H](N=C(N)N)[C@H]1NC(C)=O`, the IC50 by setting is: (read-out: IC50) 3 µM; (read-out: pIC50 (converted)) 0.00301 µM.

`CCCCCCCO[C@@H]1C=C(C(=O)O)C[C@H](N)[C@H]1NC(C)=O`: the IC50 was 270 µM (read-out: IC50) and 0.27 µM (read-out: pIC50 (converted)).

For `CCCCCCO[C@@H]1C=C(C(=O)O)C[C@H](N)[C@H]1NC(C)=O`, the IC50 runs as follows: (read-out: IC50) 150 µM; (read-out: pIC50 (converted)) 0.15 µM.

As for `CCCCCO[C@@H]1C=C(C(=O)O)C[C@H](N)[C@H]1NC(C)=O`, the IC50 by setting is: (read-out: IC50) 200 µM; (read-out: pIC50 (converted)) 0.2 µM.
